{"source": "patent US20130197030A1", "about": "“Substituted 1,3-Dioxanes and There Uses” (Evolva Sa, priority 2007, published 2013)", "target": "T1, Human Recombinant (E. coli) PPARgamma (Homo sapiens, UniProt P37231)", "T1 construct": "host or cells: E. coli", "T1 sequence (P37231 1-505)": "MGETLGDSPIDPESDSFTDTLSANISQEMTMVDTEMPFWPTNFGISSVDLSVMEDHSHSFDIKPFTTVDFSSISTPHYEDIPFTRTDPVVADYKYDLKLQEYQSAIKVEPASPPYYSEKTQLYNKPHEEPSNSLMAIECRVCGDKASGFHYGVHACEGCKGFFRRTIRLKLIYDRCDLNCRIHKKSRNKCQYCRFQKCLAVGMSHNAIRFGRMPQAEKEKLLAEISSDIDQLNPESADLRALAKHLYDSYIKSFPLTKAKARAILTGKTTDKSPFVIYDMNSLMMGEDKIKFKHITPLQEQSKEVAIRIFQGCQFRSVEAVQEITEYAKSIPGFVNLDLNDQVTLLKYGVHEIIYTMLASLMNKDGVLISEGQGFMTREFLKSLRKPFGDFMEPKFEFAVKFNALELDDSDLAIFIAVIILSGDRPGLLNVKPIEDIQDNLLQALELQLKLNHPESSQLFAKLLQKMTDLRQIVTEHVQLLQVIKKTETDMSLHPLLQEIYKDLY", "experiment": "PPAR gamma binding assay", "settings": "at 30 μM", "experimental": "Incubation: 120 min. at 4° C.\nThe results are expressed as a percent of control specific binding ((measured specific binding/control specific binding)×100) obtained in the presence of the test compounds. The IC50 values (concentration causing a half-maximal inhibition of control specific binding) and Hill coefficients (nil) were determined by non-linear regression analysis of the competition curves generated with mean replicate values using Hill equation curve fitting (Y=D+[(A−D)/(1+(C/C50)nH)], where Y=specific binding, D=minimum specific binding, A=maximum specific binding, C=compound concentration, C50=IC50, and nH=slope factor). This analysis was performed using a software developed at Cerep (Hill software) and validated by comparison with data generated by the commercial software SigmaPlot 4.0 for Windows® (© 1997 by SPSS Inc.). The inhibition constants (Ki) were calculated using the Cheng Prusoff equation (Ki=IC50/(1+(L/KD)), where L=concentration of radioligand in the assay, and KD=affinity of the radioligand for the receptor).", "data": [{"smiles": "O=C(O)CC/C=C\\C[C@H]1CO[C@@H](c2ccccc2Cl)O[C@H]1c1ccccc1O", "note": "[Compound B, (Z)-6-((2R,4R,5S)-2-(2-chlorophenyl)-4-(2-hydroxyphenyl)-1,3-dioxan-5-yl)hex-4-enoic acid, reference compound]", "values": [{"measurement": "PPARγ binding", "value": "no binding"}]}]}
